The results in this text go back to ChEMBL document CHEMBL4270572, “Synthesis and biological evaluation of novel larotaxel analogues” (Eur J Med Chem, 2018).

Data set [1] is described as follows: in vivo. The note with it: beagle, dog, iv, 1.2 mg/kg.
Data set [2] is described as follows: in vivo. The note with it: beagle, dog, iv, 1.2 mg/kg. The source holds these as a separate data set.
The nature of data set [3]: in vivo. Particulars: beagle, dog, iv, 2.4 mg/kg.
Data set [4] can be described thus: in vivo. Particulars: beagle, dog, iv, 2.4 mg/kg. The source holds these as a separate data set.
Data set [5] can be described thus: in vivo. The note with it: beagle, dog, iv, 1.2 mg/kg. This is another data set of the same source.
Data set [6] in a line: in vivo. Particulars: beagle, dog, iv, 2.4 mg/kg. The source holds these as a separate data set.
A short description of data set [7]: in vivo. Particulars: beagle, dog, iv, 0.6 mg/kg.
A short description of data set [8]: in vivo. Particulars: beagle, dog, iv, 1.2 mg/kg. The source holds these as a separate data set.
Data set [9] in a line: in vivo. The note with it: beagle, dog, iv, 0.6 mg/kg. The source holds these as a separate data set.
Data set [10] is described as follows: in vivo. Particulars: beagle, dog, iv, 2.4 mg/kg. This is another data set of the same source.
Data set [11] in a line: in vivo. Particulars: beagle, dog, iv, 0.6 mg/kg. The source holds these as a separate data set.
Data set [12] in a line: in vivo. Particulars: beagle, dog, iv, 0.6 mg/kg. The source holds these as a separate data set.

Regarding `CC(=O)O[C@H]1C(=O)[C@]23C[C@H]2C[C@H]2OC[C@@]2(OC(C)=O)[C@H]3[C@H](OC(=O)c2ccccc2)[C@]2(O)C[C@H](OC(=O)[C@H](O)[C@H](CC(C)C)NC(=O)OC(C)(C)C)C(C)=C1C2(C)C`, the highest concentration (Cmax) stood at 388 ng/mL in “in vivo [1]”, 67.1 ng/mL in the data set “in vivo [7]” and 974 ng/mL in the data set “in vivo [10]”. Besides, the Vd in the data set “in vivo [2]” was found to be 34.8 L/kg; in “in vivo [6]”, 30.8 L/kg; in “in vivo [11]” it was 45.6 L/kg. Moreover, the half-life was 8.35 h in “in vivo [3]”, 11.2 h in the data set “in vivo [8]” and 6.06 h in “in vivo [9]”. In addition, the Tmax in the data set “in vivo [4]” was found to be 0.97 h; in the data set “in vivo [5]”, 0.81 h; in “in vivo [12]” it was 0.89 h.
